Values after ≈ are worked out from the molar mass of the structure shown. Values joined by “and” are separate entries in the source; they are usually repeats but may differ in a detail not shown here. Equal entries are not always repeated. Where two headings read alike, the source gives them in different places.
Assays:
[1] = system: Streptococcus pneumoniae resistant strains (4 strains); assay: In vitro antibacterial activity, MIC by agar double dilution method; assay type: cell-based; details: clinical isolates
Description: (§1) Experimental method: The agar double dilution method (Antimicrob. Agents and Chemother, 40, 1996, 720-726) was used to determine the minimum inhibitory concentration (MIC) of the series of compounds of the invention and the positive control drug linezolid for the test strains. The multipoint inoculation system (Denley A400) was employed to inoculate the bacteria on the agar plate surface with different concentrations of drugs; inoculation amount on each point was about 10^6 CFU/mL. The plates were incubated at 35° C. for 16 hrs before the results were observed. The lowest drug concentration contained in the Petri dish without bacterial growth was used as the minimum inhibitory concentration (MIC value) of the drug fir that strain.
(§2) Test strains: All the test strains were clinically isolated pathogens which were collected from the Nanjing region, and they were re-identified by routine methods before use. 31 strains of the clinically isolated pathogens were chosen, including 6 strains of Enterococcus, 5 Staphylococcus aureus sensitive strains; 5 Staphylococcus epidermidis sensitive strains; 6 Staphylococcus aureus resistant strains; 5 Staphylococcus epidermidis resistant strains; and 4 Streptococcus pneumoniae resistant strains.
(§3) Compounds to be tested were first added 2 ml of DMSO to help them fully dissolved, then added sterile double distilled water to the desired concentration; to all the Petri dish with added drug liquid were added 20 mL MIT medium which was heat-melted to be liquid-like, to make the final drug concentration in the Petri dish to be 64, 32, 16, 8, 4, 2, 1, 0.5, 0.25, 0.125, 0.0625, and 0.031 μg/mL.
(§4) The positive control group was LZ (linezolid, brand name Zyvox, approved by the FDA in 2000 to be firstly sold in the United States, which is the first and also the only one of oxazolidinone antibacterial drugs allowed to enter clinical application).

[2] = system: Staphylococcus aureus sensitive strains (5 strains); assay: as above; assay type: cell-based; details: clinical isolates
Description: as §1, §2, §3, §4

[3] = system: Staphylococcus epidermidis sensitive strains (5 strains); assay: as above; assay type: cell-based; details: clinical isolates
Description: as §1, §2, §3, §4

[4] = system: Staphylococcus aureus resistant strains (6 strains); assay: as above; assay type: cell-based; details: clinical isolates
Description: as §1, §2, §3, §4

[5] = system: Staphylococcus epidermidis resistant strains (5 strains); assay: as above; assay type: cell-based; details: clinical isolates
Description: as §1, §2, §3, §4

Enterococcus (6 strains) = assay: as above; assay type: cell-based; details: clinical isolates, 35° C. 16 hrs
Description: as §1, §2, §3, §4

[6] = In vivo pharmacokinetic assays in rats (intragastric and intravenous), plasma Compound 14 by LC-MS/MS; parameters: species or system SD rats
Protocol: Two routes of administration (intragastric administration and intravenous injection) were employed.
Intragastric administration: Four healthy SD rats, male, weight 200-250 g, were dosed 15 mg/kg; the delivery volume was 10 ml/kg, prepared with 0.5% CMC-Na. The rats were fasted for 12 hrs before administration, free water-drinking. 0.3 ml of venous blood was taken from the posterior venous plexus of rats to heparinized tubes at 0.25, 0.5, 1.0, 2.0, 3.0, 4.0, 5.0, 7.0, 9.0, 24, and 48 hrs after administration, centrifuged at 3500 rpm for 10 mins to separate the plasma, which was then stored at −20° C. for test.
Intravenous injection: Two healthy SD rats, male, weight 200˜250 g, were dosed 5 mg/kg; the delivery volume was 10 ml/kg, prepared with DMSO, Tween 80 and deionized water. The rats were fasted for 12 hrs before administration, free water-drinking. 0.3 ml of venous blood was taken from the posterior venous plexus of rats to heparinized tubes at 5 min, 15 min, and 0.5, 1.0, 2.0, 3.0, 4.0, 5.0, 7.0, 9.0, 24, and 48 hrs after administration, centrifuged at 3500 rpm for 10 mins to separate the plasma, which was then stored at −20° C. for test.
The concentration of Compound 14 in plasma was determined by liquid chromatography tandem mass spectrometry.
In accordance with the above experimental methods, the inventor has determined the in vivo pharmacokinetic properties of phosphate (ester) disodium salt 37 of Compound 14 in rats.

[7] = as above; parameters: species or system SD rats; details: rats
[8] = 15 mg/kg Compound 14 intragastric, individual animals No. 15-18, 15 mg/kg
[9] = male, SD, rat, in vivo, po, 15 mg/kg, 15 mg/kg Compound 14 intragastric, average value
[10] = male, SD, rat, in vivo, po, 15 mg/kg, 15 mg/kg Compound 14 intragastric, individual animals No. 15-18
[11] = male, SD, rat, in vivo, iv, 5 mg/kg, 5 mg/kg Compound 14 intravenous injection, average value
[12] = 5 mg/kg Compound 14 intravenous injection, individual animals No. 19-21, 5 mg/kg

## O=C1O[C@@H](CO)[C@@H]2COc3cc(-c4ccc(C(O)CO)nc4)ccc3N12 (stereo partly drawn) [Compound 4, (3R,3aS)-7-(6-(1,2-dihydroxylethyl)pyridin-3-yl)-3-(hydroxylmethyl)-3a,4-dihydrobenzo[b]oxazolo[3,4-d][1,4]oxazin-1(3H)-one]
other
  melting point: 150 to 152 °C
[1]
  MIC: 1 to 2 µg/mL (≈ 2.79 to 5.58 µM)
[2]
  MIC: 0.5 to 1 µg/mL (≈ 1.4 to 2.79 µM)
[3]
  MIC: 0.5 µg/mL (≈ 1.4 µM)
[4]
  MIC: 0.5 to 1 µg/mL (≈ 1.4 to 2.79 µM)
[5]
  MIC: 0.5 µg/mL (≈ 1.4 µM)
Enterococcus (6 strains)
  MIC: 1 to 2 µg/mL (≈ 2.79 to 5.58 µM)

## O=C1O[C@@H](CO)[C@@H]2COc3cc(-c4ccc(N5CCC(O)CC5)nc4)ccc3N12 [Compound 11, (3R,3aS)-3-(hydroxylmethyl)-7-(6-(4-hydroxylpiperidin-1-yl)pyridin-3-yl)-3a,4-dihydrobenzo[b]oxazolo[3,4-d][1,4]oxazin-1(3H)-one]
other
  melting point: > 198 °C
[1]
  MIC: 2 to 8 µg/mL (≈ 5.03 to 20.1 µM)
[2]
  MIC: 2 to 4 µg/mL (≈ 5.03 to 10.1 µM)
[3]
  MIC: 2 to 4 µg/mL (≈ 5.03 to 10.1 µM)
[4]
  MIC: 4 µg/mL (≈ 10.1 µM)
[5]
  MIC: 8 µg/mL (≈ 20.1 µM)
Enterococcus (6 strains)
  MIC: 16 µg/mL (≈ 40.3 µM)

## CC(=O)c1ccc(-c2ccc3c(c2)OC[C@H]2[C@H](CO)OC(=O)N32)cn1 [Compound 13, (3R,3aS)-7-(6-acetylpyridin-3-yl)-3-(hydroxylmethyl)-3a,4-dihydrobenzo[b]oxazolo[3,4-d][1,4]oxazin-1(3H)-one]
other
  melting point: 199 to 201 °C
[1]
  MIC: 8 to 16 µg/mL (≈ 23.5 to 47 µM)
[2]
  MIC: 2 to 4 µg/mL (≈ 5.88 to 11.8 µM)
[3]
  MIC: 4 µg/mL (≈ 11.8 µM)
[4]
  MIC: 2 to 4 µg/mL (≈ 5.88 to 11.8 µM)
[5]
  MIC: 4 to 8 µg/mL (≈ 11.8 to 23.5 µM)
Enterococcus (6 strains)
  MIC: 2 µg/mL (≈ 5.88 µM)

## CN1CC(c2ccc(-c3ccc4c(c3)OC[C@H]3[C@H](CO)OC(=O)N43)cn2)OC1=O (stereo partly drawn) [Compound 14, (3R,3aS)-3-(hydroxylmethyl)-7-(6-(3-methyl-2-oxazolidin-5-yl)pyridin-3-yl)-3a,4-dihydrobenzo[b]oxazolo[3,4-d][1,4]oxazin-1(3H)-one]
[6]; [8]
  AUC0-t: 2174 ng·h/mL and 2095 ng·h/mL and 2374 ng·h/mL
  AUC0-∞: 2290 ng·h/mL and 2165 ng·h/mL and 2440 ng·h/mL
  Cmax: 474 ng/mL and 766 ng/mL and 878 ng/mL and 1117 ng/mL
  MRT: 2.93 h and 2.03 h and 2.23 h
  Tmax: 2.00 h and 0.50 h
  t1/2: 1.64 h and 2.34 h and 1.45 h
[6]; male, SD, rat, in vivo, 5 mg/kg Compound 14 intravenous injection, average value, read-out: CLz (plasma clearance) (converted)
  clearance: 53.7 mL/min/kg
[6]; male, SD, rat, in vivo, 15 mg/kg, 15 mg/kg Compound 14 intragastric vs 5 mg/kg intravenous, dose corrected, read-out: F (absolute bioavailability)
  bioavailability: 44.8%
[6]; male, SD, rat, in vivo, iv, 5 mg/kg, 5 mg/kg Compound 14 intravenous injection, average value, read-out: Vss (distribution volume)
  Vd: 2.39 ± 0.42 L/kg
[6]; [9]
  half-life: 1.93 ± 0.45 h
[6]; [10]
  AUC(0-inf): 1770 ng·h/mL
[7]; [11]
  AUC(0-inf): 1560 ng·h/mL
  half-life: 2.51 ± 0.92 h
[7]; male, SD, rat, in vivo, iv, 5 mg/kg, 5 mg/kg Compound 14 intravenous injection, average value, read-out: AUC0-t
  AUC0-t: 1540 ± 54 ng·h/mL
[7]; male, SD, rat, in vivo, iv, 5 mg/kg, 5 mg/kg Compound 14 intravenous injection, average value, read-out: MRT
  MRT: 0.74 h
[7]; male, SD, rat, in vivo, iv, 5 mg/kg, 5 mg/kg Compound 14 intravenous injection, individual animals No. 19-21
  AUC(0-inf): 1600 ng·h/mL
[7]; male, SD, rat, in vivo, iv, 5 mg/kg, 5 mg/kg Compound 14 intravenous injection, individual animals No. 19-21, read-out: AUC0-t
  AUC0-t: 1600 ng·h/mL
[7]; male, SD, rat, in vivo, iv, 5 mg/kg, 5 mg/kg Compound 14 intravenous injection, individual animals No. 19-21, read-out: MRT
  MRT: 0.61 h
[7]; male, SD, rat, in vivo, iv, 5 mg/kg, 5 mg/kg Compound 14 intravenous injection, individual animals No. 19-21, read-out: Vss
  Vd: 1.9 L/kg
[7]; [9]
  AUC(0-inf): 2170 ng·h/mL
  Cmax: 809 ± 267 ng/mL
  Tmax: 1 ± 0.71 h
[7]; male, SD, rat, in vivo, po, 15 mg/kg, 15 mg/kg Compound 14 intragastric, average value, read-out: AUC0-t
  AUC0-t: 2070 ± 319 ng·h/mL
[7]; male, SD, rat, in vivo, po, 15 mg/kg, 15 mg/kg Compound 14 intragastric, average value, read-out: MRT
  MRT: 2.64 h
[7]; [10]
  half-life: 2.29 h
[7]; male, SD, rat, in vivo, po, 15 mg/kg, 15 mg/kg Compound 14 intragastric, individual animals No. 15-18, read-out: AUC0-t
  AUC0-t: 1620 ng·h/mL
[7]; male, SD, rat, in vivo, po, 15 mg/kg, 15 mg/kg Compound 14 intragastric, individual animals No. 15-18, read-out: MRT
  MRT: 3.36 h
[7]; [12]
  AUC0-t: 1490 ng·h/mL and 1526 ng·h/mL
  AUC0-∞: 1510 ng·h/mL and 1555 ng·h/mL
  CLz: 52 mL/min/kg and 55.2 mL/min/kg and 53.7 mL/min/kg
  MRT: 0.79 h and 0.82 h
  Vss: 2.62 L/kg and 2.64 L/kg
  t1/2: 1.62 h and 2.46 h and 3.45 h
[7]; 15 mg/kg Compound 14 intragastric vs 5 mg/kg intravenous, dose corrected
  F (absolute bioavailability): 44%
[1]
  MIC: 1 µg/mL (≈ 2.52 µM)
[2]
  MIC: 0.5 to 1 µg/mL (≈ 1.26 to 2.52 µM)
[3]
  MIC: 0.25 to 0.5 µg/mL (≈ 0.629 to 1.26 µM)
[4]
  MIC: 0.5 to 1 µg/mL (≈ 1.26 to 2.52 µM)
[5]
  MIC: 0.25 to 1 µg/mL (≈ 0.629 to 2.52 µM)
Enterococcus (6 strains)
  MIC: 1 to 2 µg/mL (≈ 2.52 to 5.03 µM)

## Cc1cc(C#N)ncc1-c1ccc2c(c1)OC[C@H]1[C@H](CO)OC(=O)N21 [Compound 21, 5-((3R,3aS)-3-(hydroxylmethyl)-1-oxo-1,3,3a,4-tetrahydrobenzo[b]oxazolo[3,4-d][1,4]oxazin-7-yl)-4-methylpicolinonitrile]
other
  melting point: 238 to 240 °C
[1]
  MIC: 1 to 2 µg/mL (≈ 2.96 to 5.93 µM)
[2]
  MIC: 0.25 to 0.5 µg/mL (≈ 0.741 to 1.48 µM)
[3]
  MIC: 0.25 to 0.5 µg/mL (≈ 0.741 to 1.48 µM)
[4]
  MIC: 0.5 to 1 µg/mL (≈ 1.48 to 2.96 µM)
[5]
  MIC: 0.25 to 1 µg/mL (≈ 0.741 to 2.96 µM)
Enterococcus (6 strains)
  MIC: 4 to 8 µg/mL (≈ 11.9 to 23.7 µM)

## Cc1cc(N2CCOC2=O)ncc1-c1ccc2c(c1)OC[C@H]1[C@H](CO)OC(=O)N21 [Compound 22, (3R,3aS)-3-(hydroxylmethyl)-7-(4-methyl-6-(2-oxooxazolidin-3-yl)pyridin-3-yl)-3a,4-dihydrobenzo[b]oxazolo[3,4-d][1,4]oxazin-1(3H)-one]
other
  melting point: 245 to 246 °C
[1]
  MIC: 2 µg/mL (≈ 5.03 µM)
[2]
  MIC: 0.5 to 1 µg/mL (≈ 1.26 to 2.52 µM)
[3]
  MIC: 0.5 to 1 µg/mL (≈ 1.26 to 2.52 µM)
[4]
  MIC: 0.5 to 1 µg/mL (≈ 1.26 to 2.52 µM)
[5]
  MIC: 1 µg/mL (≈ 2.52 µM)
Enterococcus (6 strains)
  MIC: 4 to 16 µg/mL (≈ 10.1 to 40.3 µM)
